Measured values published in patent publication US4889871A, “Alkoxy-substituted dihydrobenzopyran-2-carboxylate derivatives” (G. D. Searle & Co., priority 1988, dated 1989).
pIC50: −log10 of the molar value. Like-named read-outs stand apart in the source and are kept apart here.

Tests used:
human neutrophils [1] = experiment: Modified Boyden chamber chemotaxis (LTB4, human neutrophils); type: cell-based; conditions: Neutrophil; for inhibition at 1 µM: 10^-6 M
Description: Human neutrophils were isolated from citrated peripheral blood using standard techniques of dextran sedimentation, followed by centrifugation on Histopaque® sterile solution (Sigma) or Ficoll-paque® (Pharmacia) and hypotonic lysis of erythrocytes. A final cell suspension of 3.4×10^6 neutrophils/ml of HEPES-buffered Hanks balanced salt solution (HBSS, pH 7.3) was added to the upper well (0.8 ml) of a modified Boyden chamber (blind well). The lower well (0.2 ml), separated by a polycarbonate membrane (Nuleopore Corp.), contained HBSS or 3×10^-8 M LTB4 in the presence of absence of test compound. Following a 90 minute incubation at 37° C. in 5% CO2 -95% air, cells from the lower well were lysed and nuclei counted in a Model S-Plus-IV Coulter Counter. Percent inhibition was calculated from cell counts corrected for random migration by subtracting the mean of the HBSS control.

LTB4 receptor = biological target: T1, LTB4 receptor (Homo sapiens, UniProt Q15722); experiment: LTB4 receptor binding assay ((3H) LTB4, human neutrophils); conditions: Table 1
T1 construct: Neutrophils were purified from venous blood of normal human donors; endogenous in cells; host or cells: purified human blood neutrophils (intact cells)
T1 sequence (Q15722 whole entry): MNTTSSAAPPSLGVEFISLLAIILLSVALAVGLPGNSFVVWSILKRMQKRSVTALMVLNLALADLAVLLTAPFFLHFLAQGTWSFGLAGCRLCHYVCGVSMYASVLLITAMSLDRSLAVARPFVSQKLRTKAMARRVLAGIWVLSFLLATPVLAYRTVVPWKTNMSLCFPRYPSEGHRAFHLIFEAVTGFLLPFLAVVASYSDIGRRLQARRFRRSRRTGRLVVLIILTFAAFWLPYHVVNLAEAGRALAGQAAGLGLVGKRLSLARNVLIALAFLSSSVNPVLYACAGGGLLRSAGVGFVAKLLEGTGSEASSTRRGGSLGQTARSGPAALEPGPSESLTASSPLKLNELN
Description: Neutrophils (4-6×10^6) in 1 ml Hanks' balanced salt solution containing 10 mM HEPES buffer (HBSS), pH 7.4 and 30 μM nordihydroguaiaretic acid were incubated with 0.6×10^-9 M (^3 H) LTB4 in the presence or absence of test compounds. The incubation was carried out at 0° C. for 45 minutes and terminated by adding 5 ml of ice-cold HBSS followed by rapid filtration of incubation mixture under vacuum through GF/C glass fiber filters. The filters were further washed with 10 ml HBSS and radioactivity was determined. Specific binding was defined as the difference between total binding and nonspecific binding which was not displaced by 10^-7 M unlabeled LTB4. All data refer to specific binding.

human neutrophils [2] = experiment: Human neutrophil degranulation assay (LTB4-induced, myeloperoxidase release); type: cell-based; conditions: Table 1, LTB4 (5×10^-8 M)
Description: Neutrophils were purified from venous blood of normal human donors using standard techniques of dextran sedimentation, centrifugation on Ficoll-paque® (Pharmacia) or Histopaque® sterile solution (Sigma) and hypotonic lysis of erythrocytes (Boyum, A., Isolation of Leukocytes From Human Blood: Further Observations. Scand. J. Lab. Clin. Invest., 21 (Suppl. 97): 31, 1968). The purity of isolated neutrophils was >95%.
Neutrophil degranulation was determined by measuring the release of myeloperoxidase activity into the incubation medium. Neutrophils (3×10^6) in 1 ml HBSS solution were preincubated with cytochalasin B (5 μg) at 37° C. for 5 minutes, followed by preincubation with test compounds for 7 minutes. Neutrophils were then incubated for 2 to 20 minutes with either LTB4 (5×10^-8 M) or the chemotactic peptide f-met-leu-phe (5×10^-6 M) to induce degranulation. Following incubation, samples were centrifuged and myeloperoxidase was extracted from the cell pellets by sonication in phosphate buffer containing 0.4% Triton X-100. Triton X-100 was also added to the supernatants to a concentration of 0.4%. The supernatants and the pellet - extracts were then assayed spectrophotometrically for myeloperoxidase activity by determining the rate of decomposition of H2 O2 with o-dianisidine as hydrogen donor as described by Renlund, et al. (Renlund, D. G., MacFarlane, J. L., Christensen, R. D., Lynch, R. E., and Rothstein, G., A Quantitative And Sensitive Method For Measurement Of Myeloperoxidase, Clinical Research 28:75A, 1980). Myeloperoxidase activity released into the supernatant was expressed as the percent of the average total activity (pellet plus supernatant).

LTD4 receptor = biological target: T2, LTD4 receptor (Cavia porcellus, UniProt Q2NNR5); experiment: LTD4 receptor binding assay using guinea pig lung membrane preparations; conditions: for Receptor Binding LTD4 IC50: Table 1, results are from Table 3, 10^-5 M
T2 construct: from tissue; host or cells: lung membranes of male Hartley guinea pigs
T2 sequence (Q2NNR5 1-340): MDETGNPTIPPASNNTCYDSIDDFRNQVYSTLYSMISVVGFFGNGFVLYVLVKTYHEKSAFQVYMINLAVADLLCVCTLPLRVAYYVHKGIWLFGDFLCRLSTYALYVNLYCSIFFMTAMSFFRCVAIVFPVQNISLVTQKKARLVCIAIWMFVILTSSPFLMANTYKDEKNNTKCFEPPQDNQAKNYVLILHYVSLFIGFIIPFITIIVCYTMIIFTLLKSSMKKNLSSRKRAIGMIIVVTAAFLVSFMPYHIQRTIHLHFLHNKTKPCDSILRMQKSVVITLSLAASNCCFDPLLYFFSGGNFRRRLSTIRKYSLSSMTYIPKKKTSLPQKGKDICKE
Description: MEMBRANE PREPARATIONS: For each membrane preparation, 10-11 male Hartley guinea pigs, weighing less than 350 gm, were sacrificed by guillotine. The lungs were rapidly removed and placed in ice-cold 50 mM Trisma 7.0 buffer. After all the lungs were collected, each was probed free of bronchial tissue to at least the level of tertiary branching as observed through a dissecting lamp. The tissue was minced with a razor blade on a damp paper towel and placed into fresh ice-cold Trisma 7.0 buffer. When all the tissues had been processed, they were pooled, drained and weighed. Nine volumes of cold buffer were added and the tissue was polytroned for 6-10 second bursts with a 1 minute cool down period in an ice bath between each burst. The homogenate was filtered through a gauze pad and centrifuged at 1085× g for 15 minutes at 4° C. Supernatants were saved and centrifuged at 40,000× g for 20 minutes at 4° C. This time, supernatants were discarded and the pellets were resuspended in 30-35 ml fresh Trisma 7.0 buffer by 1-10 second bursts with the polytron. The materials were centrifuged again at 40,000× g. Supernatants were again discarded. Each pellet was resuspended again with approximately 7 ml buffer. All this material was pooled into a 100 ml polypropylene container and stirred with a magnetic stirring bar. The tubes were rinsed with small amounts of buffer and the rinse was added to the membrane preparation. The homogenized membranes were aliquoted into 1.5 ml microfuge tubes and frozen at -70° C. Three aliquots were submitted for protein determinations by FPB (fluorescamine protein binding) assay.
Unless otherwise indicated, all binding experiments were performed in a final incubation volume of 250 μl. […] Both materials were received in solutions. […] Both solutions were brought to appropriate assay concentrations by dilution in assay buffer consisting of 50 mM Trisma 7.4 with 5 mM L-cysteine and 20 mM CaCl2. Membranes were also diluted with this assay buffer. […] Diluent was added to all other appropriate control tubes. Incubations were conducted for 30 minutes at 25° C. in a shaking water bath. Termination of the reaction was achieved by pouring the incubate over 2.5 cm Whatman GF/C filters soaked in assay buffer and set over the ports of Millipore filter vacuum manifolds. Filters were rinsed with 4 ml ice cold assay buffer 3 times. The filters were removed, placed in 10 ml Aquasol scintillation cocktail and allowed to cool in the dark for 2 hours prior to counting. All samples were corrected for background and isotope decay before converting DPM determination to mass.
These values were logit-transformed and linear regression was performed on the dose-response data. All dose-response sets used to calculate IC50 values contained data from 3-6 compound concentrations. […] IC50 values were calculated from the regression equation for the line.
male guinea pig lung homogenate which was aliquoted and stored at
-70° C. The particular preparation used to test the compounds of
Protein concentrations in these assays were adjusted
to provide aproximately 0.1 nM receptor in the presence of lnM ^3
HLTD4. Incubation was conducted for 30 min.
at 24° C. and filtration methods were used to separate bound from
tested were intially solubilized in DMSO. Each compound was evaluated at
dose of 10 μM (10^-5 M) in triplicate in 2 separate assays. The

[3] = read-out: LTD4 Receptor Binding Activity, 10 μM
[4] = read-out: LTD4 Receptor Binding Percent Inhibition, Test #1, 10 μM, triplicate, 30 min, 24° C.
[5] = read-out: LTD4 Receptor Binding Percent Inhibition, Test #2, 10 μM, triplicate, 30 min, 24° C.
[6] = read-out: Chemotaxis (Boyden) percent inhibition

Compound	pIC50 (human neutrophils [1])	pIC50 (LTB4 receptor)	pIC50 (human neutrophils [2])	inhibition at 1 µM (human neutrophils [1]; [6])	other results
CCCc1c(OCCCOc2ccc(C(C)=O)c(OC)c2CC2CC2)ccc2c1OC(C(=O)O)CC2 (stereo not drawn) [Example 3, 7-[3-[4-acetyl-2-(cyclopropylmethyl)-3-methoxyphenoxy]propoxy]-3,4-dihydro-8-propyl-2H-1-benzopyran-2-carboxylic acid]	6.70	6.72	6.74	–	–
CCCc1c(OC2CCC(Oc3ccc(C(C)=O)c(OC)c3CCC)C2)ccc2c1OC(C(=O)O)CC2 (stereo not drawn) [Example 4, 7-[[3-(4-acetyl-3-methoxy-2-propylphenoxy)cyclopentyl]oxy]-3,4-dihydro-8-propyl-2H-1-benzopyran-2-carboxylic acid]	–	5.30	5.57	–	inhibition at 0.01 µM (human neutrophils [1]; 10^-8 M, read-out: Chemotaxis (Boyden) percent inhibition): 62%
C=CCc1c(OCCCOc2ccc3c(c2CCC)OC(C(=O)O)CC3)ccc(C(C)=O)c1OC (stereo not drawn) [Example 5, 7-[3-[4-acetyl-3-methoxy-2-(2-propenyl)phenoxy]propoxy]-3,4-dihydro-8-propyl-2H-1-benzopyran-2-carboxylic acid]	6.30	7.00	6.40	–	–
CCCc1c(OCCCOc2ccc3c(c2)OC(C(=O)O)CC3)ccc(C(C)=O)c1OC (stereo not drawn) [Example 6, 7-[3-(4-acetyl-3-methoxy-2-propylphenoxy)propoxy]-3,4-dihydro-2H-1-benzopyran-2-carboxylic acid]	–	5.59	5.10	48%	Receptor Binding LTD4 IC50 (LTD4 receptor): Inactive; inhibition at 10 µM (LTD4 receptor; [3]): < 45%; inhibition at 10 µM (LTD4 receptor; [4]): 1.63%; inhibition at 10 µM (LTD4 receptor; [5]): 26%
CCCc1c(OCCCOc2ccc(C(C)=O)c(OC)c2CCC)ccc2c1OC(C(=O)NC)CC2 (stereo not drawn) [Example 8, 7-[3-(4-acetyl-3-methoxy-2-propylphenoxy)propoxy]-3,4-dihydro-N-methyl-8-propyl-2H-1-benzopyran-2-carboxamide]	–	5.74	–	12%	–
CCCc1c(OCCCOc2ccc3c(c2CCC)OC(C)(CCC(=O)O)CC3=O)ccc(C(C)=O)c1OC (stereo not drawn) [Example 16, 7-[3-(4-acetyl-3-methoxy-2-propylphenoxy)propoxy]-3,4-dihydro-2-methyl-4-oxo-8-propyl-2H-1-benzopyran-2-propanoic acid]	6.19	6.60	6.26	–	Receptor Binding LTD4 IC50 (LTD4 receptor): Inactive; inhibition at 10 µM (LTD4 receptor; [3]): < 45%; inhibition at 10 µM (LTD4 receptor; [4]): 16.5%; inhibition at 10 µM (LTD4 receptor; [5]): 24.1%
CCCc1c(OCC#CCOc2ccc3c(c2CCC)OC(C)(CCC(=O)O)CC3=O)ccc(C(C)=O)c1OC (stereo not drawn) [Example 17]	–	6.10	5.68	31%	–
CCCc1c(OCCCOc2ccc(C(C)=O)c(OC)c2CCC)ccc2c1CC(C(=O)O)CC2 (stereo not drawn) [Example 18, 7-[3-(4-acetyl-3-methoxy-2-propylphenoxy)propoxy]-1,2,3,4-tetrahydro-8-propyl-2-naphthalenecarboxylic acid]	–	6.43	5.59	–	inhibition at 10 µM (human neutrophils [1]; 10^-5 M, read-out: Chemotaxis (Boyden) percent inhibition): 87%
CCCc1c(OCCCOc2ccc(C(=O)C(C)C)c(OC)c2CCC)ccc2c1OC(C(=O)O)CC2 (stereo not drawn) [Example 19, 3,4-dihydro-7-[3-[3-methoxy-4-(2-methyl-1-oxopropyl)-2-propylphenoxy]propoxy]-8-propyl-2H-1-benzopyran-2-carboxylic acid]	–	5.92	5.30	15%	–
CCCc1c(OCCCOc2ccc(C(C)=O)c(OCC)c2CCC)ccc2c1OC(C(=O)O)CC2 (stereo not drawn) [Example 21, 7-[3-(4-acetyl-3-ethoxy-2-propylphenoxy)-propoxy]-3,4-dihydro-8-propyl-2H-1-benzopyran-2-carboxylic acid]	–	6.00	–	–	–
CCCc1c(OCCCOc2ccc3c(=O)cc(CCC(=O)O)oc3c2CCC)ccc(C(C)=O)c1OC [Example 22, 7-[3-(4-acetyl-3-methoxy-2-propylphenoxy)propoxy]-4-oxo-8-propyl-4H-1-benzopyran-2-propanoic acid]	5.92	6.30	5.80	–	–
CCCc1c(OCC(O)COc2ccc3c(=O)cc(C(=O)O)oc3c2CCC)ccc(C(C)=O)c1O (stereo not drawn) [FPL 55712, reference compound]	–	–	–	–	pIC50 (LTD4 receptor): 4.98; inhibition at 10 µM (LTD4 receptor; read-out: LTD4 Receptor Binding Activity): > 45%; inhibition at 10 µM (LTD4 receptor; read-out: LTD4 Receptor Binding Percent Inhibition, Test #1): 54.7%; inhibition at 10 µM (LTD4 receptor; read-out: LTD4 Receptor Binding Percent Inhibition, Test #2): 47%
